Measurements reported in paper PMC5471521, “Novel selective β1-adrenoceptor antagonists for concomitant cardiovascular and respiratory disease” (The FASEB Journal, 2017).

Key:
[1] = Protein binding by ultracentrifugation, rat plasma; format: in vitro ADME; conditions: male, Sprague-Dawley, read-out: fu rat plasma
Protocol: (§1) Protein binding of 1 µM NDD-713.HCl and -825.HCl in human and rat plasma, as well as human liver microsomes, was assessed by using the ultracentrifugation technique. Frozen human plasma (Australian Red Cross Blood Service, Melbourne, VIC, Australia) and rat plasma (male Sprague-Dawley rats; Charles River, Margate, Kent, United Kingdom) were thawed at 37°C. Human liver microsomes (XenoTech) were suspended in 0.1 M phosphate buffer (pH 7.4) at protein concentrations of 0.4 mg/ml. Samples were collected immediately as stability reference controls. Spiked plasma samples (but not microsome samples) were incubated at 37°C for 1 h. […] NDD-713.HCl and -825.HCl concentrations of noncentrifuged matrix and protein-free supernatant were determined by UPLC-MS relative to calibration standards prepared in the respective matrices. Total concentration (Ctotal) was the average measured concentration in […] samples maintained at 37°C, and unbound concentration (Cunbound) was the average measured concentration in protein-free supernatants from centrifuged samples (n = 3). The compound unbound fraction (fu) was calculated: fu = Cunbound/Ctotal. Compound degradation was assessed by comparing concentrations in noncentrifuged plasma samples that were incubated at 37°C with concentrations measured in the t = 0 noncentrifuged samples. […]

human β3-AR = target: T1, human β3-AR (Homo sapiens, UniProt P13945); test: Antagonism of cimaterol-induced 3H-cAMP accumulation in CHO-β3 cells; format: cell-based; conditions: cimaterol agonist, mean ± SEM, read-out: Log Kd,β3 (converted)
T1 construct: expressed in transfected cells
T1 sequence (P13945 whole entry): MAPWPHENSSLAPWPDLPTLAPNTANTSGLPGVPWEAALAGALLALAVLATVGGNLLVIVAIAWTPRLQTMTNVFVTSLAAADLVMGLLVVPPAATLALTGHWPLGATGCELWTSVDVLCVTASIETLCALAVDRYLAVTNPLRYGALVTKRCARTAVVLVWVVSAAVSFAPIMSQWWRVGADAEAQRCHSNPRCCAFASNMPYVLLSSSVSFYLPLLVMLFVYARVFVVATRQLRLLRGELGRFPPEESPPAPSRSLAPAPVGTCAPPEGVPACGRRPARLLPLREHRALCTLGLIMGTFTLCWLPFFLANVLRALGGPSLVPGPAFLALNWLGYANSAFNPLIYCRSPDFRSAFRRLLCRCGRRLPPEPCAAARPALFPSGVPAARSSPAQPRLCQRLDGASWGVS
Protocol: (§2) Confluent cells were examined (24-well plates, 5 h incubation at 37°C) as described in Baker ([45]). Antagonist Kd values were calculated from a rightward shift of the agonist concentration response curve by using the Gaddum equation as previously described ([46]).

human β1-AR [2] = target: T2, human β1-AR (Homo sapiens, UniProt P08588); test: CRE-SPAP reporter gene assay in CHO-β1 cells; format: cell-based; conditions: agonist mode, n = 5
T2 construct: expressed in transfected cells
T2 sequence (P08588 whole entry): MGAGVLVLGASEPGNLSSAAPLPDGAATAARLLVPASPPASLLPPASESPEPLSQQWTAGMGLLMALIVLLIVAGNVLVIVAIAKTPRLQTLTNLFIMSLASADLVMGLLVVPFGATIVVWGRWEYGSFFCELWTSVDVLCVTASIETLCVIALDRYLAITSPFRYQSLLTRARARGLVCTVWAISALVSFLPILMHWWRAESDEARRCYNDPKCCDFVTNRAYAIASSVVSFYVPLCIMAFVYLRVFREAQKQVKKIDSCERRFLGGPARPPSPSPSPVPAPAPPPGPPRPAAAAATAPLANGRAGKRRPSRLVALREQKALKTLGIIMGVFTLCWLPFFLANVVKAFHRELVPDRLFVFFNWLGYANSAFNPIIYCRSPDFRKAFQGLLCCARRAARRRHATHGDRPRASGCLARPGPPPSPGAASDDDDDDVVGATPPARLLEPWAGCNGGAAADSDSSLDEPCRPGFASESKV
Protocol: cAMP response element (CRE)–secreted placental alkaline phosphatase (SPAP) production was measured in confluent cells (96-well plates, 5 h incubation at 37°C) as described in Baker ([46]). This assay is a sensitive measure of both cAMP and ERK1/2 MAPK pathways ([47]).

CYP3A4 = target: T3, CYP3A4 (Homo sapiens, UniProt P08684); test: P450 in vitro clearance, recombinant Supersomes; format: in vitro ADME; conditions: 2 μM, hydrochloride salts used
T3 construct: purchased BD Biosciences
T3 sequence (P08684 whole entry): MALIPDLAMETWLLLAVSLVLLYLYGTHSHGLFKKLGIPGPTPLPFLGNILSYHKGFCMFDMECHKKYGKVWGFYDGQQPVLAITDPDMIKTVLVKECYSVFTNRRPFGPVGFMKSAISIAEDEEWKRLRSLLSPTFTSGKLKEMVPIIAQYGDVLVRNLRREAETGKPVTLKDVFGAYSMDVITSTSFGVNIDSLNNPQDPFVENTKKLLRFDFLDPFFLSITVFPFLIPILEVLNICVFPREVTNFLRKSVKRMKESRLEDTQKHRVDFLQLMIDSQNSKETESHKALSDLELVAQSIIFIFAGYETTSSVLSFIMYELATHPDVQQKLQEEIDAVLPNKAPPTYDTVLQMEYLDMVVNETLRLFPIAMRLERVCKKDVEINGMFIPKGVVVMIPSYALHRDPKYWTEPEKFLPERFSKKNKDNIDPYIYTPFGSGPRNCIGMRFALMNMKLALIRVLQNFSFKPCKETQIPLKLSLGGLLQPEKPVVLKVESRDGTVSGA
Protocol: NDD-713.HCl and -825.HCl (2 μM) and cytochrome P450 (P450) reference substrates (see Supplemental Data for full details) were incubated (37°C) with selected recombinant human P450 isoforms (CYP1A2, CYP2A6, CYP2B6, CYP2C8, CYP2C9, CYP2C19, CYP2D6 CYP2E1, and CYP3A4) in heterologously expressed P450 Supersomes (BD Biosciences) that were suspended in […] Tris-HCl buffer (pH 7.4; for CYP2C9) or 100 mM phosphate buffer (pH 7.4; for the other isoforms) at final P450 concentrations of 85 pmol/ml. Reactions were initiated by additions of an NADPH-regenerating system and quenched at time points over 60 min (reference probes) or 120 min (test compounds) by acetonitrile. Quenched samples were centrifuged and supernatants were collected. NDD-713, -825, and probe metabolites were determined by UPLC-MS relative to calibration standards prepared in quenched matrix, and %substrate that remained was calculated relative to the initial sample concentration. The %substrate that remained vs. time was fitted to exponential decay functions to determine the pseudo first-order rate constant (k/min) for substrate depletion. These were normalized to P450 concentrations (pmol/ml) to obtain in vitro CLint values: CLint, in vitro (μl/min/pmol P450) = [k (min^−1)/P450 concentration […]] × 1000. Studies were carried out by CDCO.

human β1-AR [3] = target: T2, human β1-AR; test: 3H-cAMP accumulation agonist response in CHO-β1 cells; format: cell-based; conditions: agonist mode
Protocol: as §2

human β1-AR [4] = target: T2, human β1-AR; test: Antagonism of cimaterol-induced 3H-cAMP accumulation in CHO-β1 cells; format: cell-based; conditions: for Schild slope: CHO-β1 cells, 3 antagonist concentrations, 1 = competitive antagonism; for Kd: Gaddum equation, cimaterol agonist, mean ± SEM, read-out: Log Kd,β1 (converted); for SI1b (in vitro inhibition of functional response) = Kd,β2/Kd,β1: Kd values from antagonism of cimaterol-induced 3H-cAMP accumulation, Table 2; for β1 vs. β2 selectivity Kd,β2/Kd,β1: from antagonism of cimaterol-induced 3H-cAMP accumulation
Protocol: as §2

[5] = tested on: Salmonella typhimurium strains TA98, TA100, TA1535, and TA1537; conditions: concentrations of ≤10 μM, with or without rat liver S9
Protocol: Ames fluctuation assays were performed by using Salmonella typhimurium strains TA98, TA100, TA1535, and TA1537 to detect frame-shifts and base substitutions that led to missense mutations in liquid culture in 384-well plates. Bacterial plates were incubated with serially diluted NDD-713 and -825 solutions for 96 h, and bacterial growth was measured spectrophotometrically by using a pH color-change indicator in response to bacterial growth acidification. Assays were conducted with or without metabolic activation via addition of rat liver S9 fraction. Bacteriocidal or bacteriostatic effects were assessed by using a bacterial cytotoxicity assay that was conducted in parallel with Ames fluctuation assays. Reference compounds were 2-aminoanthracene, 9-aminoacridine, quercetin, streptozotocin (genotoxicity), and mitomycin C (bacterial cytotoxicity). Study was carried out by Cerep (Celle L’Evescault, France).

[6] = Protein binding by ultracentrifugation, human plasma; format: in vitro ADME; conditions: read-out: fu human plasma
Protocol: as §1

5-HT2A = 5-HT2A (Homo sapiens, UniProt P28223); test: Cerep receptor radioligand-binding assay; conditions: for Ki: concentration-response, Cheng-Prusoff
Sequence of 5-HT2A (P28223 whole entry): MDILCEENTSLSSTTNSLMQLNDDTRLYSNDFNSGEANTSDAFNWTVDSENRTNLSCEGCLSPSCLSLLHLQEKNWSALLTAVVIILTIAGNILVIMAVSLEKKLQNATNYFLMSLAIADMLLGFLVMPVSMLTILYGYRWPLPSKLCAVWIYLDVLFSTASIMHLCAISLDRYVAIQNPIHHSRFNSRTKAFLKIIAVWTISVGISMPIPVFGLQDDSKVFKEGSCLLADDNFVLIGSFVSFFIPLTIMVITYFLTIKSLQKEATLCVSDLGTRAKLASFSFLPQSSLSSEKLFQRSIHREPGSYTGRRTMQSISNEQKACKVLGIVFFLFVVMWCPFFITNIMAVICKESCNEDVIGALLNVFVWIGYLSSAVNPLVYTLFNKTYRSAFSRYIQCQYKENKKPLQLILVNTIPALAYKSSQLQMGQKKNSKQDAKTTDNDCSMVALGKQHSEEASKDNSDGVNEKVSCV
Protocol: […]; Ki (inhibition constant) was calculated by using the Cheng-Prusoff equation from the mean of duplicate determinations in cell-based receptor radioligand-binding assays. Cerep in vitro pharmacology profiling service was used (see the Supplemental Data for a list of the assays used).

human β1-AR [7] = target: T2, human β1-AR; test: Direct measurement of ERK1/2 MAPK phosphorylation in CHO-β1 cells; format: cell-based; conditions: 3 and 10 μM, 5- and 10-min incubations
Protocol: MAPK stimulation was examined by using the AlphaScreen Surefire ERK1/2 T202/Y204 assay kit from TGR Biosciences (PerkinElmer, Waltham, MA, USA), which gives a direct quantitative readout of ERK1/2 (p42/44) MAPK phosphorylation. Confluent cells (half-well 96-well plates) were serum starved for 24 h, then the assay was performed per manufacturer instructions (5- and 10-min incubations at 37°C: ligand concentrations of 3 and 10 μM). Phorbol 12,13-dibutyrate (1 μM) was used as a positive control.

Row | Compound | fraction unbound at 1 h, 1 µM [1] | Kd (human β3-AR) [nM] | CRE-SPAP production relative to isoprenaline maximum (human β1-AR [2]) | P450 in vitro clearance CLint, CYP3A4 (CYP3A4) [μl/min/pmol P450] | Maximum 3H-cAMP response relative to isoprenaline (human β1-AR [3]) | Schild slope (human β1-AR [4]) | Kd (human β1-AR [4]) [nM] | SI1b (in vitro inhibition of functional response) = Kd,β2/Kd,β1 (human β1-AR [4]) | β1 vs. β2 selectivity Kd,β2/Kd,β1 (human β1-AR [4]) | Genotoxicity in Ames tests [5] | fraction unbound at 1 h, 1 µM [6] | β1-selectivity over the 5-HT2A receptor (5-HT2A) [fold] | Ki (5-HT2A) [nM] | Agonist response by directly measuring ERK1/2 MAPK (human β1-AR [7])
1 | O=C1NCc2cc(OCCNC[C@H](O)COc3ccc4c(c3)OC[C@@H](COCC3CC3)O4)ccc21 [NDD-825] | 0.11 | 1910 | no responses were observed | 0.17 | No ^3H-cAMP responses were observed | 1.04 ± 0.02 | 1.02 | 1738 | 1738 | Neither compound displayed genotoxicity | 0.01 | 1115 | 5800 | did not stimulate any agonist response
2 | NC(=O)c1ccc(OCCNC[C@H](O)COc2ccc3c(c2)OC[C@@H](COCC2CC2)O3)cc1 [NDD-713] | 0.16 | 3390 | no responses were observed | 0.07 | No ^3H-cAMP responses were observed | 1.06 ± 0.03 | 3.02 | 1202 | 1202 | Neither compound displayed genotoxicity | 0.15 | 510 | 7700 | did not stimulate any agonist response
